Common to all, as to experiment: NCI tumour cell line growth inhibition, 48 h
Assay [1] concerns HS 578T breast.
Assay [2] concerns OVCAR-8 ovarian.
Assay [3] deals with CAKI-1 renal.
Assay [4] deals with ACHN renal.
Assay [5] has as its system TK-10 renal.
For assay [6], the system named is HCT-15 colon.
The test system of assay [7] is UACC-257 melanoma.
Assay [8] has as its system 786-0 renal.
The test system of assay [9] is NCI-H460 lung.
Assay [10] has as its system HL-60(TB) leukemia.

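Compound exposure: 48 hours, 5 concentrations, 96-well plates. The concentration for 50% growth inhibition is given as GI50. Definition used: TGI = concentration required for complete inhibition of growth.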

`O=C(O)Cc1c(O)ccc2ccccc12`: the TGI in [1], in assay [2], in [3], in [4], in assay [5] and in assay [6] was greater than 100 µM in each case. Also, the TGI in [7], in assay [8] and in assay [9] was greater than 100 µM in each case.

For the compound `O=C(O)c1ccccc1-c1ccccc1C(=O)Nc1ccc2c(c1)Cc1cc(F)ccc1-2`, the TGI was greater than 100 µM in assay [1]; greater than 100 µM in assay [2]; greater than 100 µM in [3]; 64.2 µM in assay [4]; 90.9 µM in assay [5]; 38 µM in [6]. Besides, the values for the TGI in [7], in assay [8] and in assay [9] were 52.2 µM, greater than 100 µM and 68.2 µM, respectively.

For `COc1cc2cn3c4ccc(O)cc4[nH]c(=O)c3c2cc1OC`, the GI50 was 70.2 nM in assay [1]; 31.9 nM in assay [2]; 15.8 nM in assay [3]; 26.4 nM in assay [10]; 36.1 nM in assay [4]; 45.3 nM in assay [5]. Further, the GI50 in assay [6] is 0.0207 µM; in assay [7], less than 21.2 nM; in assay [8], 71.5 nM. Further, the TGI in assay [1] was greater than 100 µM; in assay [2] it was 1.53 µM; in [3], 1.3 µM; in [10] it was 2.3 µM; in [4], 1.61 µM; in assay [5], 1.97 µM. For the same compound, the TGI is 1.35 µM in [6], 0.419 µM in [7] and 2.02 µM in assay [8].

As for `Nc1c(C(=O)N/N=C/c2ccc(-c3ccc(Cl)cc3)o2)cnn1-c1ccnc2c(C(F)(F)F)cccc12`, the GI50 in assay [1] was greater than 100000 nM; in [3], greater than 100000 nM; in assay [10] it was greater than 100000 nM; in assay [4], greater than 100000 nM; in assay [5] it was greater than 100000 nM; in assay [6], greater than 100 µM. Also, the GI50 in assay [8] and in assay [9] was greater than 100000 nM throughout. The TGI in assay [1], in assay [3], in assay [10], in assay [4], in [5] and in assay [6] was greater than 100 µM in each case. The TGI in assay [8] and in assay [9] was greater than 100 µM throughout.

Take `CCCCCc1c(C)[nH]c(/C=C2\N=C(c3ccc[nH]3)C=C2CC)c1C`: the GI50 in assay [1] is 14 nM; in assay [3], 19.1 nM; in assay [10], 15.1 nM; in assay [4], 22.5 nM; in assay [5] it was less than 15.5 nM; in assay [6], less than 0.01 µM. Further, the GI50 in [7] was 28.6 nM; in assay [8], less than 10 nM. The TGI in assay [1] is 0.129 µM; in [3], 0.214 µM; in assay [10], 0.0814 µM; in assay [4] it was 0.189 µM; in assay [5] it was 0.166 µM; in assay [6] it was 0.125 µM. Besides, the TGI in [7] was 0.167 µM; in assay [8], 0.0352 µM.

Take `O=C1c2ccn(CCCCNC(CO)(CO)CO)c2C(=O)c2c1c(O)c1ccccc1c2O`: the GI50 in [1] is 11500 nM; in [2], 2170 nM; in [3] it was 808 nM; in [10], 2560 nM; in [4], 560 nM; in assay [5], 517 nM. Moreover, the GI50 is 7710 nM in assay [7], 2290 nM in assay [8] and 4570 nM in assay [9]. Besides, the TGI in assay [1] was greater than 75 µM; in assay [2], 11.4 µM; in assay [3], 2.68 µM; in assay [10] it was 21 µM; in [4], 1.89 µM; in assay [5], 1.72 µM. Moreover, the TGI in assay [7] came out at 24.6 µM; in assay [8] it was 6.05 µM; in assay [9], 13.8 µM.

Consider `Cc1cn2c(/C=C3/C(=O)Nc4ccccc43)c(-c3ccc(Cl)cc3)nc2s1`, for which the GI50 in [1] is 9260 nM; in assay [2], 10200 nM; in [3], 12100 nM; in [4], 2480 nM; in assay [5], 8990 nM; in assay [6], 6.93 µM. Also, the GI50 in [7] was 10500 nM; in [8], 7080 nM; in assay [9], 8140 nM. In addition, the TGI in [1] was 31.9 µM; in assay [2], 23.6 µM; in [3], 25.5 µM; in assay [4], 8.52 µM; in assay [5] it was 17.3 µM; in assay [6] it was 13.4 µM. The TGI worked out at 27.8 µM in assay [7], 13.6 µM in [8] and 22.1 µM in [9].

For the compound `CC(=O)c1c(CBr)n([O-])c2ccccc2[n+]1=O`, the GI50 is 17400 nM in [1]; 18100 nM in assay [2]; 12900 nM in assay [3]; 5490 nM in assay [10]; 8120 nM in [4]; 5440 nM in [5]. Further, the results for the GI50 in assay [6], in assay [7] and in [8] were 13.6 µM, 16700 nM and 5590 nM, respectively. Further, the TGI in assay [1] was 48.8 µM; in assay [2], 40.7 µM; in assay [3], 25.8 µM; in assay [10], 22.6 µM; in assay [4], 20.4 µM; in assay [5], 16.6 µM. Further, the TGI in assay [6] worked out at 27.7 µM; in assay [7] it was 32.9 µM; in assay [8], 17.7 µM.

Take `CC(=O)Oc1ccccc1C(=O)N=C1[Se]CCN1C(=O)c1ccccc1OC(C)=O`: the GI50 is 507 nM in assay [1]; 637 nM in [2]; 671 nM in assay [3]; 708 nM in [10]; 1400 nM in assay [4]; 491 nM in assay [5]. The GI50 was 1020 nM in assay [7], 1460 nM in assay [8] and 379 nM in assay [9]. Moreover, the TGI worked out at 3.02 µM in assay [1]; 2.7 µM in assay [2]; 1.98 µM in assay [3]; 8.47 µM in [10]; 2.86 µM in assay [4]; 1.87 µM in assay [5]. For the same compound, the TGI is 3.2 µM in assay [7], 2.8 µM in assay [8] and 2.06 µM in [9].

`O=C(N/N=C\c1cc(Br)ccc1O)c1ccncc1`: the GI50 was 13400 nM in [1]; 1380 nM in [2]; 1040 nM in assay [3]; 1280 nM in [10]; 2370 nM in assay [4]; 0.563 µM in assay [6]. In addition, the values for the GI50 in [7], in assay [8] and in assay [9] were 2330 nM, 2460 nM and 1250 nM, respectively. Besides, the TGI was greater than 100 µM in assay [1]; greater than 100 µM in assay [2]; greater than 100 µM in assay [3]; 5.57 µM in assay [10]; greater than 100 µM in [4]; greater than 100 µM in assay [6]. The TGI is 15.9 µM in assay [7], greater than 100 µM in [8] and greater than 100 µM in [9].

Regarding `COC(COC(=O)N1CCN(C=O)CC1)C1=C(N2CC2)C(=O)C(C)=C(N2CC2)C1=O` (stereo not drawn), the TGI was 5.17 µM in assay [1]; 1.36 µM in [2]; 3.6 µM in assay [3]; 0.424 µM in [4]; 2.09 µM in assay [5]; 8.1 µM in [6]. The values for the TGI in assay [7], in assay [8] and in assay [9] were 1.9 µM, 0.43 µM and 0.8 µM, respectively.

As for `Nc1nc(Nc2ccccc2)c2ncn(Cc3cc4c(cc3Br)OCO4)c2n1`, the GI50 was 75 nM in assay [1]; 170 nM in assay [2]; 135 nM in assay [3]; 35.8 nM in [10]; 79.9 nM in [4]; 114 nM in assay [5]. The values for the GI50 in [6], in [8] and in [9] were 0.0416 µM, 65.9 nM and 30.4 nM, respectively. Moreover, the TGI in [1] was greater than 94.9 µM; in assay [2], 0.832 µM; in [3], greater than 55.2 µM; in assay [10], 1.26 µM; in assay [4], 30.4 µM; in assay [5] it was 18.1 µM. Besides, the TGI in assay [6] was found to be 5.48 µM; in assay [8] it was 16.2 µM; in [9], 17.6 µM.

For the compound `Cc1n(Cc2ccc3ccccc3c2)cc[n+]1Cc1ccc2ccccc2c1`, the GI50 in [1] is 1600 nM; in assay [2], 1210 nM; in assay [10] it was 427 nM; in assay [4], 10900 nM; in [5], 1770 nM; in [6], 11.3 µM. In addition, the GI50 in assay [7] was 588 nM; in assay [8], 2250 nM; in assay [9] it was 1590 nM. Besides, the TGI in assay [1] came to 11.3 µM; in assay [2], 10.3 µM; in assay [10], 2.01 µM; in assay [4] it was 23.8 µM; in [5], 5.1 µM; in assay [6] it was 25.1 µM. The TGI in [7] turned out to be 2.58 µM; in assay [8], 8.52 µM; in assay [9] it was 10.7 µM.

Values taken from PubChem BioAssay (NCI).
